Laboratory results from patent publication US11655240B1, “Crystal form of compound and fumaric acid, pharmaceutical composition and method for treating coronavirus-induced diseases” (priority 2022, dated 2023).

How the values were obtained:
Assay type in all cases: physicochemical
[1] = Particle size distribution by laser particle size analyzer Mastersizer 3000; settings: dispersed in n-heptane
Protocol: The particle size distribution of the APIs prepared in the examples of the present disclosure was determined by using a laser particle size analyzer Mastersizer 3000 (Malvern Panalytical, UK). Specifically, about 20 mg of the API (for example, API 5) prepared in the example of the present disclosure was taken, dispersed in 8 mL of n-heptane, sonicated for 10 seconds, added to a sample dispersion unit until the shading degree was in the range from 10% to 20%, and then measured. The stirring speed of the dispersion chamber was 2000 rpm, and the duration was 10 s.

[2] = Stability of crystal form A, influencing factor and accelerated stability experiments
Excerpt: In addition, the inventors also investigated the stability of the crystal form A under conditions of the influencing factor experiment and the accelerated stability experiment, and the results is as follows: […]

[3] = Dynamic vapor sorption (DVS) analysis
Protocol: Dynamic vapor sorption analysis was performed using DVS Intrinsic (SMS, UK). The analysis adopted a gradient mode, the humidity change was 50%, 95%, 0%, and 50% in sequence, the humidity change of each gradient in the range from 0% to 90% was 10%, and the end point of the gradient was determined by dm/dt method. The end point of the gradient was determined in response to the dm/dt being less than 0.002% and maintained for 10 minutes.

[4] = Thermogravimetric analysis (TGA); settings: 10° C./min
Protocol: A thermogravimetric analyzer TA Discovery 55 (TA, US) was used. 2 mg to 5 mg of the sample was placed in an equilibrated open aluminum sample pan and automatically weighed in a TGA oven. The sample was heated to the final temperature at a rate of 10° C./min with a nitrogen purge rate of 60 mL/min at the sample and 40 mL/min at the balance.

SMILES | Particle size D50 of API [1] | Particle size D90 of API [1] | also measured
Cn1cnc(Cn2c(=O)[nH]/c(=N\c3cc4cn(C)nc4cc3Cl)n(Cc3cc(F)c(F)cc3F)c2=O)n1 [API 1] | 28.9 μm | 58.6 μm | 
Cn1cnc(Cn2c(=O)[nH]/c(=N\c3cc4cn(C)nc4cc3Cl)n(Cc3cc(F)c(F)cc3F)c2=O)n1 [API 2] | 20.3 μm | 40.1 μm | 
Cn1cnc(Cn2c(=O)[nH]/c(=N\c3cc4cn(C)nc4cc3Cl)n(Cc3cc(F)c(F)cc3F)c2=O)n1 [API 3] | 8.4 μm | 10.2 μm | 
Cn1cnc(Cn2c(=O)[nH]/c(=N\c3cc4cn(C)nc4cc3Cl)n(Cc3cc(F)c(F)cc3F)c2=O)n1 [API 4] | 23.5 μm | 46.7 μm | 
Cn1cnc(Cn2c(=O)[nH]/c(=N\c3cc4cn(C)nc4cc3Cl)n(Cc3cc(F)c(F)cc3F)c2=O)n1 [API 5] | 18.6 μm | 34.2 μm | 
Cn1cnc(Cn2c(=O)[nH]/c(=N\c3cc4cn(C)nc4cc3Cl)n(Cc3cc(F)c(F)cc3F)c2=O)n1 [API 6] | 8.9 μm | 15.6 μm | 
Cn1cnc(Cn2c(=O)[nH]/c(=N\c3cc4cn(C)nc4cc3Cl)n(Cc3cc(F)c(F)cc3F)c2=O)n1 [API 7] | 22.3 μm | 45.5 μm | 
Cn1cnc(Cn2c(=O)[nH]/c(=N\c3cc4cn(C)nc4cc3Cl)n(Cc3cc(F)c(F)cc3F)c2=O)n1 [API 8] | 20.1 μm | 40.7 μm | 
Cn1cnc(Cn2c(=O)[nH]/c(=N\c3cc4cn(C)nc4cc3Cl)n(Cc3cc(F)c(F)cc3F)c2=O)n1 [API 9] | 8.8 μm | 10.4 μm | 
Cn1cnc(Cn2c(=O)[nH]/c(=N\c3cc4cn(C)nc4cc3Cl)n(Cc3cc(F)c(F)cc3F)c2=O)n1 [API 10] | 22.1 μm | 43.4 μm | 
Cn1cnc(Cn2c(=O)[nH]/c(=N\c3cc4cn(C)nc4cc3Cl)n(Cc3cc(F)c(F)cc3F)c2=O)n1 [API 11] | 20.6 μm | 42.7 μm | 
Cn1cnc(Cn2c(=O)[nH]/c(=N\c3cc4cn(C)nc4cc3Cl)n(Cc3cc(F)c(F)cc3F)c2=O)n1 [API 12] | 8.3 μm | 10.9 μm | 
Cn1cnc(Cn2c(=O)[nH]/c(=N\c3cc4cn(C)nc4cc3Cl)n(Cc3cc(F)c(F)cc3F)c2=O)n1 [API 13] | 22.4 μm | 48.9 μm | 
Cn1cnc(Cn2c(=O)[nH]/c(=N\c3cc4cn(C)nc4cc3Cl)n(Cc3cc(F)c(F)cc3F)c2=O)n1 [API 14] | 20.5 μm | 41.3 μm | 
Cn1cnc(Cn2c(=O)[nH]/c(=N\c3cc4cn(C)nc4cc3Cl)n(Cc3cc(F)c(F)cc3F)c2=O)n1 [API 15] | 10.2 μm | 15.8 μm | 
Cn1cnc(Cn2c(=O)[nH]/c(=N\c3cc4cn(C)nc4cc3Cl)n(Cc3cc(F)c(F)cc3F)c2=O)n1 [API 16] | 38.3 μm | 70.5 μm | 
Cn1cnc(Cn2c(=O)[nH]/c(=N\c3cc4cn(C)nc4cc3Cl)n(Cc3cc(F)c(F)cc3F)c2=O)n1 [API 17] | 35.4 μm | 65.7 μm | 
Cn1cnc(Cn2c(=O)[nH]/c(=N\c3cc4cn(C)nc4cc3Cl)n(Cc3cc(F)c(F)cc3F)c2=O)n1 [crystal form A, (6E)-6-[(6-chloro-2-methyl-2H-indazol-5-yl)imino]-3-[(1-methyl-1H-1,2,4-triazol-3-yl)methyl]-1-(2,4,5-trifluorobenzyl)-1,3,5-triazine-2,4-dione fumaric acid] |  |  | Stability (appearance, purity, dissociation, crystalline transformation) ([2]; 40° C. and 75% relative humidity (RH), within 2 months): stable; Stability (appearance and purity) ([2]; high temperature, high humidity, and light irradiation, within 30 days): stable; Hygroscopicity ([3]; DVS): almost no hygroscopicity; Crystal form stability, XRPD before and after DVS experiment ([3]; FIG. 3): very stable, is not prone to crystalline transformation; DVS weight loss ([3]; at 0% RH): 0.02%; DVS weight gain ([3]; at 80% RH): 0.06%; TGA decomposition temperature ([4]; nitrogen): higher than 240 °C; TGA weight loss ([4]; heated to 150° C.): basically no weight loss
